Source: publication PMC8878317, “Chemogenomics identifies acetyl-coenzyme A synthetase as a target for malaria treatment and prevention” (Cell Chemical Biology, 2022)
Read-outs that look alike come from different tables or passages of the source.

Tests used:
[1] = target: T1, PfAcAS A597V (Plasmodium falciparum, UniProt C6KTB4, A597V); assay: EnzChek assay, recombinant PfAcAS A597V; type: biochemical, P. falciparum
T1 sequence (C6KTB4 1-997 A597V): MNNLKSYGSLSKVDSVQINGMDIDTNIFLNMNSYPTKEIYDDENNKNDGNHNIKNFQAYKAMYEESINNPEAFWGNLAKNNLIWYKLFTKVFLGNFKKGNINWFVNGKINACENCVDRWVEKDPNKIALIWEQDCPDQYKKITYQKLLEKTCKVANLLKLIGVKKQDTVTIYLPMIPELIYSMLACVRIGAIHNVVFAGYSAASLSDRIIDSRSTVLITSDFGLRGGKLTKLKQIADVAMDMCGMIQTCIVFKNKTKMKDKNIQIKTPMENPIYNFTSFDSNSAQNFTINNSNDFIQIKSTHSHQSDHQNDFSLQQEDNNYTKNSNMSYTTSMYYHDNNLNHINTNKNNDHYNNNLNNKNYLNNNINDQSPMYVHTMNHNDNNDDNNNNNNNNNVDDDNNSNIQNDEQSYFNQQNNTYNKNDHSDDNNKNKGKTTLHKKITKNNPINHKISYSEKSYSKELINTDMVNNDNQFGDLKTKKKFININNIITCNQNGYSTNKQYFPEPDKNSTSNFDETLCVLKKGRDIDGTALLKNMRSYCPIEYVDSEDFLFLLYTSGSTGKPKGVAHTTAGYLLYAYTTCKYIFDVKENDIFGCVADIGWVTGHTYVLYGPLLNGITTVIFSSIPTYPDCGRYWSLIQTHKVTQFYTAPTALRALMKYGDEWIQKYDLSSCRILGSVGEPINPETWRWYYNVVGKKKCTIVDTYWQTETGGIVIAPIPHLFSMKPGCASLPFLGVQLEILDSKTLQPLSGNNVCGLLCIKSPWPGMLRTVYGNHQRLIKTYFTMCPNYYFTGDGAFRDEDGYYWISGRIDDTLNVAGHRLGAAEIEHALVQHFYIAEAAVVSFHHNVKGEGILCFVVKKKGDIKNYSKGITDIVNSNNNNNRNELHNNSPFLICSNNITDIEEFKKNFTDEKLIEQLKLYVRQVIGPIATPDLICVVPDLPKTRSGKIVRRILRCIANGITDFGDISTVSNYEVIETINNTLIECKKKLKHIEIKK
Method: (§1) Steady-state kinetic measurements were conducted at room temperature using a PheraStar plate reader (BMG). The first step of the reaction of PfAcAS, which produces inorganic pyrophosphate (PPi) that is converted to two molecules of inorganic phosphate using a pyrophosphatase enzyme, was continuously monitored using the EnzChek Phosphate Assay Kit, which gives an absorbance readout at 360 nm (Figure 4A) ([Webb, 1992]). […] By adding CoA, the reaction rapidly proceeds to the second step resulting in further release of pyrophosphate, making the EnzChek assay a suitable option to continuously monitor the activity of PfAcAS. Typical kinetic assays were carried out in clear, flat-bottom, polystyrene, 384-well plates (Greiner) in an 80 μL reaction volume containing 100 mM HEPES (pH7.4), 100 mM NaCl, 250 mM KCl, 50 mM MgCl2, 1 mM DTT, 0.004% Tween 20, 0.5 U/mL pyrophosphatase, 0.1 mM MESG, 0.5 U/mL PNP, 2 mM ATP, 2 mM acetate, 0.5 mM CoA and 5 nM recombinant PfAcAS WT or 10 nM recombinant PfAcAS A597V or T648M. Assays were performed by adding 40 μL of a 2-times concentrated substrate mixture including MESG to all wells, and the reactions started by adding 40 μL of a 2-times concentrated reaction mixture containing all other components. The reactions were carried out for 2 to 4 hr with absorbance readings at 360 nm every two to four minutes. Reaction rates were extracted from the linear phase of activity, usually using 10 to 20 points between times of 30 and 100 min of the reactions. Using a phosphate standard curve obtained under the same buffer conditions used for the PfAcAS reactions (Figure S5A), the rates were then converted to velocity per second, conversion of one nanomolar of phosphate, per nanomolar of enzyme, per second. The substrates Km values were determined by varying the concentration of one of the substrates at saturating concentration of the other two substrates. Steady-state data were fitted using the nonlinear, least-squares, curve-fitting programs of Sigma-Plot for Windows, version 14.0. Individual saturation curves were fit to Equation 1(Equation 1) v=VS/K+S where V is the maximal velocity, S is the substrate concentration and K is the Michaelis constant for the substrate (Km). Individual saturation curves displaying substrate inhibition were fit to Equation 2(Equation 2) v=VS/K+S×(1+S/Ks) where Ks is the substrate inhibition constant.
(§2) To determine the steady-state inhibition parameters and patterns associated with both inhibitors, PfAcAS activity was studied in the presence of variable concentrations of one substrate, ATP, acetate or CoA, fixed saturating concentration of the other two substrates (acetate and CoA, ATP and CoA, or ATP and acetate) and several fixed concentrations of inhibitor. Assay ready plates containing different concentrations of inhibitor were prepared using an Echo 550 acoustic dispenser (Labcyte Inc.). The assays were carried out as described in the previous section. […] For better comparison between both inhibitors and proteins, the ymin was fixed to zero and the ymax to 100. Inhibition data showing linear, competitive patterns in double-reciprocal plots were fit to Equation 4(Equation 4) v=VS/K(1+I/Ki)+S where Ki is the dissociation constant for the enzyme-inhibitor complex. Inhibition data showing linear, mixed inhibition patterns in double-reciprocal plots were fit to Equation 5(Equation 5) v=VS/K(1+I/Kis)+S(1+I/Kii) where Kis is the dissociation constant for the free enzyme-inhibitor complex and Kii is the dissociation constant for the enzyme-substrate-inhibitor complex. Inhibition data showing linear, uncompetitive patterns in double-reciprocal plots were fit to Equation 6(Equation 6) v=VS/K+S(1+I/Ki)

[2] = test system: liver-stage P. berghei parasites (Pbluc); assay: Liver-stage P. berghei assay (Pbluc); type: cell-based; conditions: Plasmodium berghei
[3] = target: T2, PfAcAS T648M (Plasmodium falciparum, UniProt C6KTB4, T648M); assay: EnzChek assay, recombinant PfAcAS T648M; type: biochemical, P. falciparum
T2 sequence (C6KTB4 1-997 T648M): T1 sequence (C6KTB4 1-997 A597V)
Method: as §1, §2

[4] = test system: HepG2 cells; assay: HepG2 cytotoxicity; type: cell-based; conditions: Homo sapiens, mammalian cell cytotoxicity
[5] = test system: histone acetylation in P. falciparum 3D7-T648M; assay: Histone acetylation Western blot, drug-selected 3D7-T648M; type: cell-based; conditions: trophozoites, 3 h exposure
Method: Synchronous trophozoite-stage (24-32hr post-invasion) cultures at 3–5% parasitemia and 2% hematocrit in complete medium were exposed to test compounds for 3 hr at 37°C. […] DMSO was tested at 0.1% as the vehicle-only control. Following drug exposure, parasites were isolated via saponin lysis ice-cold 0.1% saponin in phosphate-buffered saline (PBS). Isolated parasites were washed 3x in ice-cold PBS containing protease inhibitor cocktail (cOmplete mini, Roche) and lysed in 1x Laemmli Sample Buffer (Biorad) with 5% beta-mercaptoethanol (Sigma-Aldrich). Samples were heated at 99°C for 10 min before centrifugation. Equal quantities of solute were separated on Protean TGX Precast Gels (4–20% gradient) in Tris-SDS-glycine buffer, transferred to nitrocellulose membrane by iblot (Invitrogen), and blocked for 1h in tris-buffered saline (TBS) with 5% skim milk powder. Blocked membranes were probed with antibodies recognising tetra-acetylated H4 (H4ac4, Sigma-Aldrich 06–866), H4K8ac (CST #2594), H3K9ac (CST #9649) or H3 (CST #4499), at 1:1000 dilution, and PfBiP ([Shonhai et al., 2007]) (at 1:5000 dilution) in 3% milk powder TBS with 0.1% Tween 20 at 4°C overnight and with 800CW goat α-rabbit IgG (Licor) at 1:10,000 dilution. Membranes were visualised using a Licor Odyssey CLX imaging system and quantified using ImageJ.

[6] = target: PfAcAS WT (Plasmodium falciparum, UniProt C6KTB4); assay: PfAcAS mode of inhibition studies (EnzChek); type: biochemical, P. falciparum; set-up: key to MoI (mode of inhibition), Kis/Kii,acetate / MoI (mode of inhibition), Ki,ATP / MoI (mode of inhibition), Kis,acetate / MoI (mode of inhibition), Ki,CoA: UC = uncompetitive; MI = mixed inhibition; C = competitive
Method: as §1, §2

[7] = variable ATP, saturating acetate and CoA, linear uncompetitive, read-out: Ki versus ATP
[8] = variable CoA, saturating ATP and acetate, read-out: Ki versus CoA

SMILES | Hill, AcAS A597V [1] | IC50 [1] [nM] | EC50 [2] [nM] | Hill, AcAS T648M [3] | IC50 [3] [nM] | EC50 [4] [nM] | histone acetylation in 3D7-T648M parasite line [5] | MoI (mode of inhibition), Ki,ATP ([6]; Table S6 (MMV019721 MoI)) | MoI (mode of inhibition), Ki,CoA ([6]; Table S6 (MMV019721 MoI)) | MoI (mode of inhibition), Kis,acetate ([6]; Table S6 (MMV019721 MoI)) | MoI (mode of inhibition), Kis/Kii,acetate ([6]; Table S6, fourth column (head printed MMV019721 MoI)) | Ki [6, 7] [nM] | Ki [6, 8] [nM] | Ki ([6]; variable acetate, saturating ATP and CoA, linear uncompetitive, read-out: Ki versus acetate) [nM] | Kii against acetate ([6]; linear mixed inhibition, enzyme-substrate-inhibitor complex) [nM] | Ki ([6]; linear mixed inhibition, free enzyme-inhibitor complex, read-out: Kis against acetate) [nM]
CCN(CC)S(=O)(=O)c1ccc(Cl)c(C(=O)Nc2ccc3nc(C)sc3c2)c1 [MMV019721] | 0.58 ± 0.05 | 6900 ± 1200 | 2100 | 0.81 ± 0.12 | 18000 ± 3200 | > 50000 | little to no measurable effect | UC | C | UC | MI | 200 ± 8 | 22 ± 1 | 150 ± 10 |  | 
O=C(NNC(=O)c1csnn1)c1ccc(Cl)cc1 [MMV084978] |  | > 100000 | 520 ± 210 |  | > 100000 | > 50000 | protection |  |  |  |  | 680 ± 26 | 690 ± 24 |  | 390 ± 110 | 30 ± 3
